Key:
fibroblasts = assay: PGE2 release post-UVB irradiation, fibroblasts (ELISA); format: cell-based, Human; conditions: for Change in PGE2 release post-UVB irradiation, fibroblasts: UVB 35 mJ/cm2, 24 hours
Procedure: (§1) Human keratinocytes and fibroblasts were cultured in an appropriate medium in the presence of various concentrations of chrysin for 24 hours. The cells were then transferred to a product-free medium and exposed to a pro-inflammatory dose of UVB radiation at a dosage of 35 mJ/cm2 for fibroblasts and 30 mJ/cm2 for keratinocytes. Following irradiation, the cells were then post-incubated either in medium alone or in medium containing various concentrations of chrysin vs. a positive control (acetylsalicylic acid) for 24 hours. PGE2 release into the culture medium after 24 hours was determined using an ELISA method.

UGT1A1 mRNA = assay: Induction of UGT1A1 mRNA by chrysin, RT-PCR in hepG2 cells; format: cell-based, Human; conditions: 3 days
Procedure: Human hepG2 cells were cultured in an appropriate medium (Williams medium) in the presence or absence of the inductor, chrysin, for 3 days At the end of that period, cell lysis was induced, mRNA extracted and RT-PCR conducted
Quantification of UGT1A1 mRNA: The study was conducted after 3 days of incubation in the presence of chrysin. The values, shown in Table 1, obtained were normalized on the GADPH internal standard and then expressed as percentages relative to the reference.

Human keratinocytes = assay: PGE2 release post-UVB irradiation, keratinocytes (ELISA); format: cell-based; conditions: for Change in PGE2 release post-UVB irradiation, keratinocytes: UVB 30 mJ/cm2, 24 hours
Procedure: as §1

[1] = positive control, concentration not given

| Structure (SMILES) | Change in PGE2 release post-UVB irradiation, fibroblasts (fibroblasts; 2 μM) | Change in PGE2 release post-UVB irradiation, fibroblasts (fibroblasts; 3.9 μM) | Change in PGE2 release post-UVB irradiation, fibroblasts (fibroblasts; 7.8 μM) | Change in PGE2 release post-UVB irradiation, fibroblasts (fibroblasts; 11.8 μM) | UGT1A1 Induction (UGT1A1 mRNA; chrysin 7.8 μM) | UGT1A1 mRNA, normalized on GADPH, percentage relative to the reference (UGT1A1 mRNA; chrysin 7.8 μM) | UGT1A1 Induction (UGT1A1 mRNA; chrysin 11.8 μM) | UGT1A1 mRNA, normalized on GADPH, percentage relative to the reference (UGT1A1 mRNA; chrysin 11.8 μM) | increase in UGT1A1 mRNA (in words) (UGT1A1 mRNA; dose effect) | Change in PGE2 release post-UVB irradiation, keratinocytes (Human keratinocytes; 2 μM) | Change in PGE2 release post-UVB irradiation, keratinocytes (Human keratinocytes; 3.9 μM) | Change in PGE2 release post-UVB irradiation, keratinocytes (Human keratinocytes; 7.8 μM) | Change in PGE2 release post-UVB irradiation, keratinocytes (Human keratinocytes; 11.8 μM) | inhibition of keratinocytic PGE2 (Human keratinocytes; maximum over the chrysin concentrations, without a dose effect) | Change in PGE2 release post-UVB irradiation, fibroblasts (fibroblasts; [1]) | inhibition of PGE2, fibroblasts (fibroblasts; [1]) | Change in PGE2 release post-UVB irradiation, keratinocytes (Human keratinocytes; [1]) | inhibition of PGE2, keratinocytes (Human keratinocytes; [1]) |
| --- | --- | --- | --- | --- | --- | --- | --- | --- | --- | --- | --- | --- | --- | --- | --- | --- | --- | --- |
| O=c1cc(-c2ccccc2)oc2cc(O)cc(O)c12 [Chrysin, 5,7-dihydroxyflavone] | −76% | −85% | −89% | −92% | ×2.5 | 247% | ×6 | 600% | very marked increase | −75% | −84% | −85% | −86% | up to 85% |  |  |  |  |
| CC(=O)Oc1ccccc1C(=O)O [acetylsalicylic acid, reference compound] |  |  |  |  |  |  |  |  |  |  |  |  |  |  | −95% | greater than 90% | −92% | greater than 90% |
